Patent US10426775B2, “Methods for treating Friedreich's ataxia with etravirine” (Fratagene Therapeutics srl, priority 2017, dated 2019)

Test system: frataxin
Assay: Western blot of frataxin in lymphoblastoid cell lines derived from FRDA patients
Assay type: cell-based, human
Protocol: Lymphoblastoid cell lines from one healthy subject [GM16215] and 7 FRDA patients [GM16228, GM16203, GM16214, GM16223, GM16210, GM16205, GM16216], and primary fibroblasts from 2 FRDA patients [GM02816 and GM04078], were obtained from NIGMS Human Genetic Cell Repository, Coriell Institute for Medical Research (Camden, N.J., USA). Lymphoblasts and fibroblasts were grown at 37° C. and 5% CO2 and were respectively cultured in RPMI or DMEM, supplemented with 15% FBS, […] penicillin/streptomycin and 2 mM L-glutamine.
For the validation steps, etravirine (TMC125) was purchased from Selleckchem and was dissolved in DMSO at a stock concentration of 10 mM. HEK-293 Flp-In cells, stably overexpressing frataxin, were treated with the drug (or only DMSO) for 24 hours at final concentration of 10 μM. FRDA cells were treated with different concentration of etravirine. For all drug (and no drug) treatments, the final concentration of DMSO in the cell culture medium was 0.1%.
Total cell extracts were prepared in lysis buffer (50 mM Tris-HCl, pH 7.5, 150 mM NaCl, 1% Igepal CA-630, 5 mM EDTA, 5 mM EGTA) supplemented with complete protease inhibitor cocktail (Roche Diagnostics, Indianapolis, Ind., USA). Lysates were clarified by centrifugation and supernatants were mixed with 4× Laemmli sample buffer (50 mM Tris pH 6.8, 2% SDS, 10% gliycerol, 0.0025% bromophenol blue, 5% beta-mercaptoethanol), boiled for 5 min, resolved by precast 12% SDS-PAGE gels (Bio-Rad Laboratories, Hercules, Calif., USA) and transferred to […] nitrocellulose membrane (TRANS-BLOT® TURBO™ Transfer pack, Bio-Rad). Membranes were blocked with 5% non-fat dry milk, 0.1% Tween 20 in phosphate-buffered saline (PBS) and incubated with the indicated primary and secondary antibodies. The immunoreactive bands were detected by ECL (GE Healthcare, Chalfont St. Giles, UK) and imaged with a ChemiDoc XRS system (Bio-Rad). Densitometry analysis was performed using the ImageLab 4.1 Software (Bio-Rad). To analyse the western blot densitometry results, a Student's t test was applied. All values are expressed as means±1 S.E.M.
In order to evaluate whether the precursor that readily accumulates upon etravirine treatment can be converted into the mature functional form of frataxin, we tested the effect of different doses of etravirine, ranging from 100 nM to 10 μM, on a lymphoblastoid cell line, GM16203, derived from an FRDA patient. The cells were treated with the indicated doses of etravirine for 24 hours. Cell extracts were resolved on SDS-PAGE and analyzed by western blot analysis with anti-frataxin and anti-tubulin, as a loading control. We tested different doses, ranging from 100 nM to 3 μM, on the lymphoblastoid cell line GM16203.
A) FRDA lymphoblast cells, GM16203, were treated with the indicated doses of etravirine for 24 hours. Cell extracts were resolved on SDS-PAGE and analyzed by western blot analysis with anti-frataxin (lower panel) and anti-tubulin (upper panel), as a loading control. Int: intermediate frataxin; mat: mature frataxin; tub: tubulin. B) The graph represents the relative mature frataxin levels measured by densitometric analysis of independent blots and normalized with tubulin levels. Data represent the average of three independent experiments±S.E.M. p-values were calculated with Student's t-test (*p<0.05; **p<0.01)
We chose the minimal effective dose (300 nM) to evaluate the efficacy of etravirine over a broad range of cells derived from FRDA patients. In particular, we analysed 7 lymphoblastoid cell lines derived from FRDA patients and primary fibroblasts derived from two different FRDA patients. Each cell line was treated with 300 nM etravirine for 24 hours. Cell extracts were resolved on SDS-PAGE and analyzed by western blot analysis with anti-frataxin and anti-tubulin, as a loading control. Etravirine promotes increase in intermediate and mature frataxin levels in all the cell lines tested upon 24 hours of treatment (FIGS. 3A-3B). […]

`Cc1cc(C#N)cc(C)c1Oc1nc(Nc2ccc(C#N)cc2)nc(N)c1Br` [etravirine] was tested, and the frataxin precursor accumulation (FRDA lymphoblast cell line GM16203, 10 μM etravirine) was “can also be detected”, the “average fold increase in mature frataxin levels” value (shortened to “average fold increase”) (GM16203 lymphoblasts (830 GAA repeats), 300 nM etravirine, 24 hours) was 1.41 fold and the “minimal effective dose (sufficient for a significant increase in intermediate and mature frataxin forms)” value (GM16203 lymphoblasts, 24 hours, doses 100 nM to 10 μM) was 300 nM. For the same molecule, the “frataxin form induced at the highest dose” value (GM16203 lymphoblasts, 24 hours, etravirine at 10 (μM)) was “mostly induces precursor accumulation”, the “average fold increase” value (GM16205 lymphoblasts (530 GAA repeats), 300 nM etravirine, 24 hours) was 1.58 fold and the “average fold increase” value (GM16210 lymphoblasts (580 GAA repeats), 300 nM etravirine, 24 hours) was 1.22 fold. For the same molecule, the “average fold increase” value (GM16214 lymphoblasts (700 GAA repeats), 300 nM etravirine, 24 hours) was 1.71 fold, the “frataxin accumulation in treated patient cells vs unaffected carrier cells” value (GM16214 treated vs GM16215 untreated, 24 hours, 300 nM etravirine) was “comparable to frataxin levels in untreated cells derived from healthy control” and the “average fold increase” value (GM16216 lymphoblasts (500 GAA repeats), 300 nM etravirine, 24 hours) was 1.21 fold. The “average fold increase” value (GM16223 lymphoblasts (630 GAA repeats), 300 nM etravirine, 24 hours) was 1.22 fold, the “average fold increase” value (GM16228 lymphoblasts (840 GAA repeats), 300 nM etravirine, 24 hours) was 1.62 fold and the “overall increase in mature frataxin levels in cells derived from FRDA patients” value (all FRDA lymphoblastoid lines and fibroblasts tested, 300 nM etravirine, 24 hours) was 50%.
